Where two headings read alike, the source gives them in different places.
Tests used:
[1] = solubilities of active compounds in solvents; type: physicochemical
Experimental: The flash point of 130° C. is sufficiently high for safe production. Studies with selected fluorinated antiparasitics in triethyl phosphate formulations show good and long-lasting activity against fleas and various ticks on dogs and cats.

[2] = toxicity of triethyl phosphate
[3] = skin compatibility of triethyl phosphate; settings: with rats, dogs and cats
[4] = solvent 83.3% propylene carbonate 16.7% benzyl alcohol

SMILES	solubility in 83.3% propylene carbonate 16.7% benzyl alcohol [1, 4]	solubility in propylene carbonate ([1]; solvent propylene carbonate)	solubility in triethyl phosphate ([1]; solvent triethyl phosphate)	toxicity [2]	skin compatibility [3]	solubility in 83.3% propylene carbonate 16.7% benzyl alcohol [1]	solubility in propylene carbonate [1]	solubility in triethyl phosphate [1]
O=C(NC1CC1)c1cc(-c2cnn(-c3c(Cl)cc(C(F)(C(F)(F)F)C(F)(F)F)cc3OC(F)(F)F)c2)cnc1Cl [Compound 1, 2-chloro-5-[1-[2-chloro-4-[1,2,2,2-tetrafluoro-1-(trifluoromethyl)ethyl]-6-(trifluoromethoxy)phenyl]-1H-pyrazol-4-yl]-N-cyclopropyl-3-pyridinecarboxamide]	17% (w/w)	5% (w/w)	44% (w/w)					
O=C(NC1CC1)c1cc(-c2cnn(-c3c(Cl)cc(C(F)(C(F)(F)F)C(F)(F)F)cc3C(F)(F)F)c2)cnc1Cl [Compound 2, 2-chloro-5-[1-[2-chloro-4-[1,2,2,2-tetrafluoro-1-(trifluoromethyl)ethyl]-6-(trifluoromethyl)phenyl]-1H-pyrazol-4-yl]-N-cyclopropyl-3-pyridinecarboxamide]	14% (w/w)	4% (w/w)	40% (w/w)					
CCOP(=O)(OCC)OCC [Triethyl phosphate, triethyl phosphate]				low toxicity	excellent skin compatibility			
N#Cc1nn(-c2c(Cl)cc(C(F)(F)F)cc2Cl)c(N)c1[S+]([O-])C(F)(F)F (centres unmarked) [fipronil]						5% (w/w)	11% (w/w)	36% (w/w)
Cc1cc(C2=NOC(c3cc(Cl)cc(Cl)c3)(C(F)(F)F)C2)ccc1C(=O)NCC(=O)NCC(F)(F)F (centres unmarked) [fluralaner]	13% (w/w)	7% (w/w)	41% (w/w)					
CON=CNC(=O)c1ccc(C2=NOC(c3cc(Cl)cc(Cl)c3)(C(F)(F)F)C2)cc1C (centres unmarked) [fluxametamide]	6% (w/w)	3% (w/w)	20% (w/w)					
N#Cc1nn(-c2c(Cl)cc(C(F)(F)F)cc2Cl)c(NCc2ccccn2)c1SC(F)F [pyriprole]	28% (w/w)	21% (w/w)	49% (w/w)					
Cn1nc(C(F)(F)C(F)(F)F)c(C(F)(F)F)c1-n1cc(-c2ccc(Cl)c(C(=O)NC3(C#N)CC3)c2)cn1 [tigolaner]	20% (w/w)	26% (w/w)	52% (w/w)					
